From patent US20250115569A1, “SULFONAMIDE COMPOUNDS FOR THE TREATMENT OF NEUROLOGICAL CONDITIONS” (LARIO THERAPEUTICS LIMITED, priority 2021, published 2025) come the findings set out here.

Chain of Cav2.3 (Q15878 whole entry, looked up): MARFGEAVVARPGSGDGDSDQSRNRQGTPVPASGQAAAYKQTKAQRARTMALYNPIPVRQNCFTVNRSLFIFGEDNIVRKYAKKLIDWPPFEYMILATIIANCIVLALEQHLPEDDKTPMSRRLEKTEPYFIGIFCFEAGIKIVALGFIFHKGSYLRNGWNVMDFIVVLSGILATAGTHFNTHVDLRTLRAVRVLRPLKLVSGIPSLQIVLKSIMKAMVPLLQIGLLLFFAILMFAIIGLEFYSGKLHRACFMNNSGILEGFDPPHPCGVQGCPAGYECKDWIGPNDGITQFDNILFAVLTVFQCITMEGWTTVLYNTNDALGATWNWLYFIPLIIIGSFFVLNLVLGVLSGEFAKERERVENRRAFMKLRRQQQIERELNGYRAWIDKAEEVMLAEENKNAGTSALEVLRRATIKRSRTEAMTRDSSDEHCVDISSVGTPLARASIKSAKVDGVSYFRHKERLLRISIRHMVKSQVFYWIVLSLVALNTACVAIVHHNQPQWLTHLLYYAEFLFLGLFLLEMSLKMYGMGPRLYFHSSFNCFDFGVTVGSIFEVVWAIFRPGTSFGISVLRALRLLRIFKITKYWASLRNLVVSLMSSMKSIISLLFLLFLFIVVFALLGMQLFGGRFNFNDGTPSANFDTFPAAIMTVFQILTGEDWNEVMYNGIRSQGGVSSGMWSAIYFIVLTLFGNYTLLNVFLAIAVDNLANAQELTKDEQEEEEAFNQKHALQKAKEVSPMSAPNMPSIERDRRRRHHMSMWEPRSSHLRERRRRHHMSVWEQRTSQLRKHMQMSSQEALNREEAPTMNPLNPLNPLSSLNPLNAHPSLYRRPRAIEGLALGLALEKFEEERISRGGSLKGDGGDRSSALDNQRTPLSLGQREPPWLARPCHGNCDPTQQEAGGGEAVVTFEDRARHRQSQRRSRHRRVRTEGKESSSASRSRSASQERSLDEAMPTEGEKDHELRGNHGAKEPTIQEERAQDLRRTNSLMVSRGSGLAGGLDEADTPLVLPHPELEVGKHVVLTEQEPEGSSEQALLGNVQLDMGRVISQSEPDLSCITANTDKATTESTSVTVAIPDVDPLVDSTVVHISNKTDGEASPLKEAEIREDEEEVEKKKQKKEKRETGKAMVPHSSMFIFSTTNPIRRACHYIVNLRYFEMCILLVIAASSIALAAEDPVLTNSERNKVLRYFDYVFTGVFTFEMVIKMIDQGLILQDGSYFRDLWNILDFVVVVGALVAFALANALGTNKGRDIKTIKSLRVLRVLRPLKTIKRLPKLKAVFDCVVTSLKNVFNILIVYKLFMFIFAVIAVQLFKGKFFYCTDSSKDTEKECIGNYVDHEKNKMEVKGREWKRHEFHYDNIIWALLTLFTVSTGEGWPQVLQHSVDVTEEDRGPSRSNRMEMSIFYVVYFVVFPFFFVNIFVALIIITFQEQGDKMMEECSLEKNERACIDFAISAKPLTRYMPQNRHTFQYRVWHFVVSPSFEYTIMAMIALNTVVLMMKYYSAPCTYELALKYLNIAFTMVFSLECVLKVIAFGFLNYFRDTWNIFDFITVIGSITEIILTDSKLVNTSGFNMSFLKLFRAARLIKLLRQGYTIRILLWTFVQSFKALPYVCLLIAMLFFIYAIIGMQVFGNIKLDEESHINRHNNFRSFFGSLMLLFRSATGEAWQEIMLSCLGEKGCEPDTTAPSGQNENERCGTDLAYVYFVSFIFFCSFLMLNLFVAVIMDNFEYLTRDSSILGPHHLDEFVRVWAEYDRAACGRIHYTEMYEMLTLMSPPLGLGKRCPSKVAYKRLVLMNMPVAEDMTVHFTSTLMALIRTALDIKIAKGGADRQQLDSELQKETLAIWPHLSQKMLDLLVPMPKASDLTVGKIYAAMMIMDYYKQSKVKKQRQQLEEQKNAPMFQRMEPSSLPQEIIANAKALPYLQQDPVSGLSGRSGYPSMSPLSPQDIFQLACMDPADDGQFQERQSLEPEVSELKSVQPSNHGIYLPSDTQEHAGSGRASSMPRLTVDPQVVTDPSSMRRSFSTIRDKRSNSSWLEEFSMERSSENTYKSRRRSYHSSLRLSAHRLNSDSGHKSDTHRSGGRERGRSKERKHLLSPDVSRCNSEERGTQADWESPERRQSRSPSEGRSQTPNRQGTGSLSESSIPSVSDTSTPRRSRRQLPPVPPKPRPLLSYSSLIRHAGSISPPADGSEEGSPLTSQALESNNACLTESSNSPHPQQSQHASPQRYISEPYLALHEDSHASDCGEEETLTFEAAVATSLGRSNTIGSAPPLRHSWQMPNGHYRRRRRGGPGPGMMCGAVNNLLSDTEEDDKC

The experiment has as its target Cav2.3 (Homo sapiens, UniProt Q15878). The experiment is described as follows: Human Cav2.3 channel calcium-influx assay. It counts as cell-based. The conditions noted are these: Fluo8 fluorescence, HEK-293 T-Rex/Kir2.1/Cav2.3e cells, without pluronic acid, read-out: Cav2.3 (pIC50) (converted). An outline of the steps:
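Signal = peak fluorescence (5–130 s) minus baseline (1–2 s), normalized to neutral (0) and inhibitor (−100) controls as % effect. Depolarization used final 20 mM KCl, 130 mM NaCl, 2 mM CaCl2, after 3 min RT compound exposure (30 μM top, half-log, 8 points, 0.3% DMSO) in doxycycline-induced HEK-293 T-Rex/Kir2.1/Cav2.3e-β4-α2δ1 cells with Fluo8 NW.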
With `CCN([C@H](c1ccc(F)cc1)C(F)(F)F)S(=O)(=O)c1cnc2ccnn2c1` [Example 165, (R)—N-ethyl-N-(2,2,2-trifluoro-1-(4-fluorophenyl)ethyl)pyrazolo[1,5-a]pyrimidine-6-sulfonamide], the IC50 is 0.123 µM.
Regarding `CCN([C@H](c1ccc(F)cc1)C(F)(F)F)S(=O)(=O)c1ccc2nnc(C(F)(F)F)n2n1` [Example 169, (R)—N-ethyl-N-(2,2,2-trifluoro-1-(4-fluorophenyl)ethyl)-3-(trifluoromethyl)-[1,2,4]triazolo[4,3-b]pyridazine-6-sulfonamide], the IC50 was 5.75 µM.
Under `CCN([C@H](c1ccc(F)cc1)C(F)(F)F)S(=O)(=O)c1ccn2ncnc2c1` [Example 137, (R)—N-ethyl-N-(2,2,2-trifluoro-1-(4-fluorophenyl)ethyl)-[1,2,4]triazolo[1,5-a]pyridine-7-sulfonamide] stands 0.0724 µM.
Under `CCN([C@H](c1ccc(F)cc1)C(F)(F)F)S(=O)(=O)c1ccc2sc(N)nc2c1` [Example 155, (R)-2-amino-N-ethyl-N-(2,2,2-trifluoro-1-(4-fluorophenyl)ethyl)benzo[d]thiazole-5-sulfonamide] stands 1.91 µM; under `COc1ccc([C@@H](N(C)S(=O)(=O)C2CCOCC2)C(F)(F)F)cc1` [Example 129, (R)—N-methyl-N-(2,2,2-trifluoro-1-(4-methoxyphenyl)ethyl)tetrahydro-2H-pyran-4-sulfonamide], 1.17 µM.
Under `CCN([C@H](c1ccc(F)cc1)C(F)(F)F)S(=O)(=O)c1cnc2nc[nH]c2c1` [Example 156, (R)—N-ethyl-N-(2,2,2-trifluoro-1-(4-fluorophenyl)ethyl)-1H-imidazo[4,5-b]pyridine-6-sulfonamide] stands 0.204 µM; under `CCN(C(c1ccc(F)cc1)C(F)(F)F)S(=O)(=O)c1ccc(C(N)=O)s1` (stereo not shown) [Example 22, 5-(N-ethyl-N-(2,2,2-trifluoro-1-(4-fluorophenyl)ethyl)sulfamoyl)thiophene-2-carboxamide], 0.741 µM.
`CN([C@@H](c1ccc(C(F)(F)F)cc1)C(F)(F)F)S(=O)(=O)c1cncc(C#N)c1` [Example 69, (S)-5-Cyano-N-methyl-N-(2,2,2-trifluoro-1-(4-(trifluoromethyl)phenyl)ethyl)pyridine-3-sulfonamide]: the IC50 was 5.62 µM.
Under `CN(C(c1ccc(F)cc1)C(F)(F)F)S(=O)(=O)c1ccc(Cl)s1` (stereo not shown) [Example 1, 5-chloro-N-methyl-N-(2,2,2-trifluoro-1-(4-fluorophenyl)ethyl)thiophene-2-sulfonamide] stands 8.91 µM.
Under `CCN([C@@H](c1ccc(F)cc1)C(F)(F)F)S(=O)(=O)c1ccc(=O)n(C)c1` [Example 102, (S)—N-ethyl-1-methyl-6-oxo-N-(2,2,2-trifluoro-1-(4-fluorophenyl)ethyl)-1,6-dihydropyridine-3-sulfonamide] stands 6.76 µM; under `[2H][C@@](c1ccc(Cl)cc1)(N(C)S(=O)(=O)c1cncc(C#N)c1)C(F)(F)F` [Example 242, N-(1-(4-chlorophenyl)-2,2,2-trifluoroethyl-1-d)-5-cyano-N-methylpyridine-3-sulfonamide], 0.0355 µM.
Under `Cc1ccc([C@@H](N(C)S(=O)(=O)c2cncc(F)c2)C(F)(F)F)cc1` [Example 222, (R)-5-fluoro-N-methyl-N-(2,2,2-trifluoro-1-(p-tolyl)ethyl)pyridine-3-sulfonamide] stands 0.245 µM; under `CCN([C@H](c1ccc(F)cc1)C(F)(F)F)S(=O)(=O)c1cn2ccccc2n1` [Example 142, (R)—N-ethyl-N-(2,2,2-trifluoro-1-(4-fluorophenyl)ethyl)imidazo[1,2-a]pyridine-2-sulfonamide], 1.07 µM; under `CCN(C(c1ccc(Cl)cc1)C(F)(F)F)S(=O)(=O)c1cncc(C#N)c1` (stereo not shown) [Example 54, N-(1-(4-chlorophenyl)-2,2,2-trifluoroethyl)-5-cyano-N-ethylpyridine-3-sulfonamide], 0.0372 µM.
Consider `CCN([C@H](c1ccc(F)cc1)C(F)(F)F)S(=O)(=O)c1cncc(F)c1` [Example 261, (R)—N-ethyl-5-fluoro-N-(2,2,2-trifluoro-1-(4-fluorophenyl)ethyl)pyridine-3-sulfonamide], for which the IC50 is 0.0117 µM.
In the case of `Cc1cc([C@@H](N(C)S(=O)(=O)c2cncc(F)c2)C(F)(F)F)ccc1C(F)(F)F` [Example 270, (R)-5-fluoro-N-methyl-N-(2,2,2-trifluoro-1-(3-methyl-4-(trifluoromethyl)phenyl)ethyl)pyridine-3-sulfonamide] it was 0.49 µM.
Consider `CCN([C@H](c1ccc(C(F)(F)F)cc1)C(F)(F)F)S(=O)(=O)c1cnc2ccccn12` [Example 237, (R)—N-ethyl-N-(2,2,2-trifluoro-1-(4-(trifluoromethyl)phenyl)ethyl)imidazo[1,2-a]pyridine-3-sulfonamide], for which the IC50 is 0.0302 µM.
Under `CN([C@H](c1ccc(Cl)cc1)C(F)(F)F)S(=O)(=O)c1ccc(O)nn1` [Example 208, (R)—N-(1-(4-chlorophenyl)-2,2,2-trifluoroethyl)-6-hydroxy-N-methylpyridazine-3-sulfonamide] stands 1.05 µM.
Under `CN([C@H](c1ccc(Cl)cc1)C(F)(F)F)S(=O)(=O)c1cnc2ncsc2c1` [Example 200, (R)—N-(1-(4-chlorophenyl)-2,2,2-trifluoroethyl)-N-methylthiazolo[4,5-b]pyridine-6-sulfonamide] stands 0.282 µM; under `CCN([C@H](c1ccc(F)cc1)C(F)(F)F)S(=O)(=O)c1cnc2ncsc2c1` [Example 151, (R)—N-ethyl-N-(2,2,2-trifluoro-1-(4-fluorophenyl)ethyl)thiazolo[4,5-b]pyridine-6-sulfonamide], 0.17 µM.
In the case of `N#Cc1cncc(S(=O)(=O)N(CCF)C(c2ccc(F)cc2)C(F)(F)F)c1` (stereo not shown) [Example 64, 5-Cyano-N-(2-fluoroethyl)-N-(2,2,2-trifluoro-1-(4-fluorophenyl)ethyl)pyridine-3-sulfonamide] it was 0.178 µM; in that of `CCN([C@H](c1ccc(F)cc1)C(F)(F)F)S(=O)(=O)c1nc2cnccn2n1` [Example 144, (R)—N-ethyl-N-(2,2,2-trifluoro-1-(4-fluorophenyl)ethyl)-[1,2,4]triazolo[1,5-a]pyrazine-2-sulfonamide], 1.78 µM; in that of `CCN([C@H](c1ccc(C(F)(F)F)c(C)c1)C(F)(F)F)S(=O)(=O)c1cncc(C#N)c1` [Example 268, (R)-5-cyano-N-ethyl-N-(2,2,2-trifluoro-1-(3-methyl-4-(trifluoromethyl)phenyl)ethyl)pyridine-3-sulfonamide], 0.468 µM.
For the molecule `CCN([C@H](c1ccc(F)cc1)C(F)(F)F)S(=O)(=O)c1cnnc(OC)c1` [Example 123, (R)—N-ethyl-6-methoxy-N-(2,2,2-trifluoro-1-(4-fluorophenyl)ethyl)pyridazine-4-sulfonamide], the IC50 is 0.166 µM.
Under `CCN([C@@H](c1ccc(F)cc1)C(F)(F)F)S(=O)(=O)c1cnnc(OC)c1` [Example 122, (S)—N-ethyl-6-methoxy-N-(2,2,2-trifluoro-1-(4-fluorophenyl)ethyl)pyridazine-4-sulfonamide] stands 7.24 µM.
In the case of `COc1cc(S(=O)(=O)N(C)[C@H](c2ccc(Cl)cc2)C(F)(F)F)c(OC)nn1` [Example 228, (R)—N-(1-(4-chlorophenyl)-2,2,2-trifluoroethyl)-3,6-dimethoxy-N-methylpyridazine-4-sulfonamide] it was 0.891 µM; in that of `CCN([C@H](c1ccc(F)cc1)C(F)(F)F)S(=O)(=O)c1nc2ccccn2n1` [Example 153, (R)—N-ethyl-N-(2,2,2-trifluoro-1-(4-fluorophenyl)ethyl)-[1,2,4]triazolo[1,5-a]pyridine-2-sulfonamide], 1.58 µM.
Under `CN([C@H](c1ccc(Cl)cc1)C(F)(F)F)S(=O)(=O)c1cnc2ccnn2c1` [Example 201, (R)—N-(1-(4-chlorophenyl)-2,2,2-trifluoroethyl)-N-methylpyrazolo[1,5-a]pyrimidine-6-sulfonamide] stands 0.427 µM.
Consider `CN([C@H](c1ccc(Cl)cc1)C(F)(F)F)S(=O)(=O)c1cc2nncn2cn1` [Example 204, (R)—N-(1-(4-chlorophenyl)-2,2,2-trifluoroethyl)-N-methyl-[1,2,4]triazolo[4,3-c]pyrimidine-7-sulfonamide], for which the IC50 was 0.759 µM.
Turning to `CCN([C@@H](c1ccc(F)cc1)C(F)(F)F)S(=O)(=O)c1cccc(C)n1` [Example 32, (S)—N-ethyl-6-methyl-N-(2,2,2-trifluoro-1-(4-fluorophenyl)ethyl)pyridine-2-sulfonamide], the IC50 is 3.8 µM.
In the case of `CCN([C@H](c1ccc(F)cc1)C(F)(F)F)S(=O)(=O)c1cnc2ncccn12` [Example 177, (R)—N-ethyl-N-(2,2,2-trifluoro-1-(4-fluorophenyl)ethyl)imidazo[1,2-a]pyrimidine-3-sulfonamide], the IC50 is 0.0339 µM.
Under `CN([C@H](c1ccc(Cl)cc1)C(F)(F)F)S(=O)(=O)c1cnc2nsnc2c1` [Example 179, (R)—N-(1-(4-chlorophenyl)-2,2,2-trifluoroethyl)-N-methyl-[1,2,5]thiadiazolo[3,4-b]pyridine-6-sulfonamide] stands 0.661 µM; under `CCN([C@H](c1ccc(F)cc1)C(F)(F)F)S(=O)(=O)c1ccc2nnc(C)n2n1` [Example 168, (R)—N-ethyl-3-methyl-N-(2,2,2-trifluoro-1-(4-fluorophenyl)ethyl)-[1,2,4]triazolo[4,3-b]pyridazine-6-sulfonamide], 2.19 µM; under `CCN(C(c1ccc(F)cc1)C(F)(F)F)S(=O)(=O)c1cncc(C(N)=O)c1` (stereo in doubt) [Example 52, (S)-5-(N-ethyl-N-(2,2,2-trifluoro-1-(4-fluorophenyl)ethyl)sulfamoyl)nicotinamide], 0.0955 µM.
